Measured values taken from PubChem BioAssay (NCI).
Several values for one entry are separate records, joined by “and”; a condition that tells them apart may be missing. Identical values can stand only once.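 These data come from cells grown in 96-well plates and exposed to compound for 48 hours at five concentrations. Abbreviation: GI50, concentration required for 50% inhibition of growth. TGI denotes the concentration required for complete inhibition of growth.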

Legend:
Experiment in all cases: growth of human tumour cells (NCI), 48 h
HCT-116 colon = tested on: HCT-116 colon
LOX IMVI melanoma = tested on: LOX IMVI melanoma
TK-10 renal = tested on: TK-10 renal
SN12C renal = tested on: SN12C renal
CCRF-CEM leukemia = tested on: CCRF-CEM leukemia
SK-OV-3 ovarian = tested on: SK-OV-3 ovarian
NCI-H522 lung = tested on: NCI-H522 lung
MDA-MB-231 breast = tested on: MDA-MB-231 breast
MCF7 breast = tested on: MCF7 breast
NCI-H23 lung = tested on: NCI-H23 lung

Row | Compound | GI50 (HCT-116 colon) [nM] | TGI (HCT-116 colon) | GI50 (LOX IMVI melanoma) | TGI (LOX IMVI melanoma) | GI50 (TK-10 renal) | TGI (TK-10 renal) | GI50 (SN12C renal) | TGI (SN12C renal) | GI50 (CCRF-CEM leukemia) | TGI (CCRF-CEM leukemia) [µM] | GI50 (SK-OV-3 ovarian) | TGI (SK-OV-3 ovarian) | GI50 (NCI-H522 lung) [nM] | TGI (NCI-H522 lung) | GI50 (MDA-MB-231 breast) | TGI (MDA-MB-231 breast) | GI50 (MCF7 breast) | TGI (MCF7 breast) | GI50 (NCI-H23 lung) | TGI (NCI-H23 lung)
1 | O=C1/C(=C/c2ccc(Cl)cc2)CN(C(=O)C(Cl)Cl)C/C1=C\c1ccc(Cl)cc1 | 33.6 | 0.13 µM | 32.1 nM | 0.121 µM | 0.374 µM | 1.52 µM | 203 nM | 0.541 µM | 74.2 nM | > 59.3 | 0.531 µM | 1.74 µM | 310 | 1.4 µM | 270 nM | 0.961 µM | 0.0441 µM | 0.56 µM | 0.242 µM | 0.887 µM
2 | COC(=O)[C@@H](C)C[C@H](Cc1ccccc1)NC(=O)c1csc([C@@H](C[C@H](C(C)C)N(C)C(=O)[C@@H](NC(=O)[C@H]2CCCCN2C)C(C)C)OC(C)=O)n1 | – | > 25 µM | 0.695 nM and 2.5 nM | > 25 µM | 0.0223 µM and 0.0025 µM | > 25 µM | 0.567 nM and 2.5 nM | > 25 µM | 0.425 nM and 2.5 nM | > 25 | – | > 25 µM | 0.178 | 0.000897 µM | 0.506 nM and 2.5 nM | 0.0116 µM | – | > 25 µM | 0.000395 µM and 0.0025 µM | > 25 µM
3 | Cc1ccc(NC(=O)c2ccnc(N3CCCC3)c2)cc1-c1ccc(C(=O)NCC2CC2)cc1 | > 23800 | > 25 µM | > 25000 nM | > 25 µM | > 25 µM | > 25 µM | > 25000 nM | > 25 µM | > 25000 nM | > 25 | > 25 µM | > 25 µM | > 25000 | > 25 µM | 10000 nM | > 25 µM | > 25 µM | > 25 µM | > 25 µM | > 25 µM
4 | O=C1/C(=C/C(Cl)=C/c2ccccc2)SC(=S)N1CCc1ccc(O)cc1 | 1010 | 3.55 µM | 1270 nM | 2.74 µM | 2.39 µM | 5.49 µM | 1510 nM | 4.12 µM | 441 nM | > 100 | 5.53 µM | > 100 µM | 1420 | 4.78 µM | 3820 nM | 34.3 µM | 1.85 µM | 16.9 µM | 2.42 µM | 7.85 µM
5 | CC(C)(O)[C@H]1[C@@H]2OC(=O)[C@H]1[C@]1(O)C[C@H]3OC34C(=O)O[C@H]2[C@@]41C (stereo partly specified) (tested in a mixture with another compound) | – | > 100 µM | – | > 100 µM | – | > 100 µM | – | > 100 µM | – | > 100 | – | > 100 µM | – | > 100 µM | – | > 100 µM | – | > 100 µM | – | > 100 µM
6 | O=C1C=CC2(C=C1)CCN=c1c(O)c3c(c(O)c12)=NC=N3 | – | 22.5 µM and > 100 µM | – | 15.1 µM and > 100 µM | 22.7 µM and > 100 µM | 38.4 µM and > 100 µM | 14500 nM and > 100000 nM | 29.4 µM and > 100 µM | – | > 100 | 18.3 µM and > 100 µM | 33.2 µM and > 100 µM | – | 16.6 µM and > 100 µM | 14400 nM and > 100000 nM | 31.8 µM and > 100 µM | 11.9 µM and > 100 µM | 28.7 µM and > 100 µM | – | 19.5 µM and > 100 µM
7 | C[C@]12CCC(=O)C=C1CC[C@@H]1[C@@H]2CC[C@]2(C)C(=O)/C(=C/c3cccc(OCCN4CCOCC4)c3)C[C@@H]12 | 3140 | 13.4 µM | 9440 nM | 26.6 µM | 17.7 µM | > 100 µM | 16700 nM | 63.6 µM | 4490 nM | 28.6 | 11.7 µM | > 100 µM | 8000 | 26.4 µM | 11600 nM | 42.3 µM | 9.11 µM | 71.7 µM | 3.79 µM | 20.6 µM
8 | Cn1cc(C2=C(c3c4n(c5ccccc35)CCC(CN)CC4)C(=O)NC2=O)c2ccccc21 (stereo unspecified) | 3510 | 7.26 µM | 5260 nM | 11.4 µM | 3.31 µM | 6.95 µM | 3870 nM | 8.14 µM | 5190 nM | 15.6 | 4.99 µM | 11.6 µM | 4080 | 8.11 µM | 3250 nM | 7.13 µM | 3.48 µM | 7.41 µM | 5.05 µM | 10.9 µM
9 | COc1cccc2c1c1nc3cc(C)c(C)cc3nc1n2CCN(C)C | 426 | 10.3 µM | 1040 nM | 8.7 µM | 2.95 µM | 11.5 µM | 1660 nM | 11.2 µM | 1810 nM | 7.3 | 2.02 µM | 12.2 µM | 2390 | 8.65 µM | 1870 nM | 9.52 µM | 2.13 µM | 10.9 µM | 1.66 µM | 5.57 µM
10 | Cc1cccc(N=C2c3cc([N+](=O)[O-])ccc3-c3c2cc([N+](=O)[O-])cc3[N+](=O)[O-])c1 | 1670 | 3.37 µM | 1570 nM | 2.93 µM | 12.9 µM | > 100 µM | 2140 nM | 4.8 µM | 3870 nM | > 100 | > 100 µM | > 100 µM | 4350 | 41.7 µM | 2430 nM | 5 µM | 6.27 µM | 28.2 µM | 5.33 µM | 27.6 µM
11 | O=C(O)c1cccc(CC(Br)C(=O)O)c1 (stereo unspecified) | – | > 100 µM | – | > 100 µM | – | > 100 µM | – | > 100 µM | – | > 100 | – | > 100 µM | – | > 100 µM | – | > 100 µM | – | > 100 µM | – | > 100 µM
12 | COc1ccc(-c2nc(-c3nc4cc(C)c(C)cc4[nH]3)cc3c2[nH]c2ccccc23)cc1 | 3220 | 13 µM | 3080 nM | 11.2 µM | 7.85 µM | > 100 µM | 5540 nM | > 100 µM | 2510 nM | 7.56 | 13 µM | 48.1 µM | 3000 | 13.5 µM | 2540 nM | 7.76 µM | 3.22 µM | 59.7 µM | 11 µM | 68.2 µM
13 | CC(C)=CCC/C(C)=C/CC/C(=C/COP(=O)(OCc1ccc([N+](=O)[O-])o1)N(C)CCCCCl)C(C)(C)C (stereo unspecified) | 2040 | 11.8 µM | 1280 nM | 4.68 µM | 1.72 µM | 22.2 µM | 2600 nM | 7.27 µM | 57.1 nM | 27.4 | 18.1 µM | 38.7 µM | 2660 | 10 µM | – | 1.03 µM | 2.47 µM | 18.6 µM | 12.6 µM | 34.2 µM
